The source of these data is patent US20100255580A1, “Differentiation of Human Embryonic Stem Cells” (LIFESCCAN, INC., priority 2007, published 2010).

The subject of the test is human embryonic stem cells (H9, H7) on MATRIGEL
Put plainly: FACS of CXCR4, DE protocol on […] (feeder-free). Type of test: cell-based. The settings on record: for cells expressing CXCR4 (FACS): H9 passage 54, end of the 5th day, 100 ng/ml Activin A +/− 10 ng/ml Wnt3a for 2 days. The protocol:
Adhered cells were removed from culture plates by five-minute incubation with TrypLE™ Express solution (Invitrogen, CA). Released cells were resuspended in human embryonic stem cell culture medium and recovered by centrifugation, followed by washing and resuspending the cells in a staining buffer consisting of 2% BSA, 0.05% sodium azide in PBS (Sigma, MO). As appropriate, the cells were Fc-receptor blocked for 15 minutes using a 0.1% γ-globulin (Sigma) solution. […] Controls included appropriate isotype matched antibodies, unstained cells, and cells stained only with secondary conjugated antibody. All incubations with antibodies were performed for 30 mins at 4° C. after which the cells were washed with the staining buffer. Samples that were stained with unconjugated primary antibodies were incubated for an additional 30 mins at 4° C. with secondary conjugated PE or -APC labeled antibodies. See Table I for a list of secondary antibodies used. Washed cells were pelleted and resuspended in the staining buffer, and the cell surface molecules were identified using a FACS Array (BD Biosciences) instrument, collecting at least 10,000 events.
Differentiation of embryonic stem cells to definitive endoderm was carried out as previously described in Nature Biotechnology 23, 1534-1541 (December 2005). […] H9 cells were cultured on plates coated with growth factor reduced […] at a 1:30 to 1:10 dilution or on regular […] at a 1:30 to 1:10 dilution The plates were coated with […] for 1 hr at room temperature.
At day 5, the cultures were analyzed by FACS for CXCR4, E-cadherin, CD9, and N-cadherin expression and by real time PCR for SOX-17, SOX-7, Alpha-fetal protein (AFP), CXCR4, Brychyury (Bry), gooscecoid (GSC), HNF-3 beta, and GATA4. AFP and SOX-7 are regarded as visceral endoderm markers, while GATA4, HNF-3 beta and SOX-17 represent definite endoderm markers, and GSC, Bry, and CXCR4 represent markers of primitive streak. FIG. 17 depicts the expression of CXCR4 by FACS.
Differentiation of embryonic stem cells to definitive endoderm was carried out as previously described in Nature Biotechnology 23, 1534-1541 (December 2005). […] In all subsequent examples unless otherwise noted, this treatment regimen will be referred to as the definite endoderm (DE) protocol. In parallel, H9, H7, or H1 cells cultured on MEF feeders were also exposed to the same DE protocol outlined above.
In some of the cultures 20 ng/ml Wnt-3a (Catalog #1324-WN-002, R&D Systems, MN), 20 ng/ml Wnt-5a (Catalog #654-WN-010, R&D Systems, MN), 25 ng/ml Wnt-7a (Catalog #3008-WN-025, R&D Systems, MN), or 25 ng/ml Wnt-5b (Catalog #3006-WN-025, R&D Systems, MN) was added throughout the five day treatment. FIG. 24 depicts phase contrast images of H9P46 definitive endoderm culture in the presence of high concentration of (a) AA or (b) AA+20 ng/ml Wnt-3a. FIG. 25 depicts the expression of CXCR4 by FACS at day 5 for H7P44, and H9P46 lines cultured on […] (1:30 dilution) and exposed to the DE protocol+Wnt-3a (FIG. 25, panels b and d) and −Wnt-3a (FIG. 25, panels a and c).
Control cultures were not treated with Wnt-3a. FIG. 27, panel a depicts the expression of CXCR4 by FACS at day 5 in the absence of Wnt-3a, b) 10 ng/ml Wnt-3a, c) 20 ng/ml Wnt-3a and d) 50 ng/ml Wnt-3a. In the absence of Wnt-3a the expression of CXCR4 was very low. […] Real-time PCR results (FIG. 28, panel a) also confirm this finding.
In order to confirm that the effect of Wnt-3a was through the Wnt pathway, a GSK-3 inhibitor was used to activate the downstream targets of Wnt, such as beta catenin. […] FIG. 29, panel a depicts the expression of CXCR4 by FACS at day 5 in the absence of Wnt-3a or GSK-3B inhibitor, b) +20 ng/ml Wnt-3a, c) +1000 nM GSK-3B inhibitor IX, d) +500 nM GSK-3B inhibitor IX, e) +100 nM GSK-3B inhibitor IX, f) +10 nM GSK-3B inhibitor IX, g) +100 nM GSK-3B inhibitor IX for days 1-2, and h) +10 nM GSK-3B inhibitor IX for days 1-2. […]

Where [1] appears, read: H9P46-P48, 20 ng/ml Wnt-3a or 100-1000 nM GSK-3B inhibitor, day 5.

Regarding `O=C1Nc2cc(Br)ccc2/C1=C1/Nc2ccccc2/C1=N\O` [GSK-3B inhibitor IX, reference compound], the “number of CXCR4 positive cells” value under setting [1] is “significantly increased”. The “expression of CXCR4 (FACS)” value (H9P46-P48, 10 nm GSK-3B inhibitor, day 5) is “very low”.

Regarding Wnt-3a, the “cells expressing CXCR4 (FACS)” value is 73%. In addition, the “expression of CXCR4 (CD184) by FACS” value (H7P44 and H9P46, day 5, DE protocol + 20 ng/ml Wnt-3a vs low serum plus AA) is on record as “robust expression”. Further, under setting [1], the “number of CXCR4 positive cells” value is listed as “significantly increased”. Further, the “number of CXCR4 positive cells” value (H9P46, 10-50 ng/ml Wnt-3a with 100 ng/ml AA, day 5) is given as “significantly increased”.

As to “Activin A: a member of the TGFβ superfamily; R&D Systems; Group 2 = Activin A (100 ng/ml)”, the “cells expressing CXCR4 (FACS)” value worked out at 1%.
